Values of other authors as cited in patent US5731007A, “Pharmaceutical composition for skin diseases” (Yungjin Pharmaceutical Co., Ltd., priority 1994, dated 1998).
Entries after “also recorded” stand apart in the source; their conditions may differ. Where a name gives a salt, the structure may show the parent alone.

System: gram positive and negative bacteria
Settings: including strains resistant to antibiotics such as kanamycin

## CNC[C@@H]1CC[C@@H](N)[C@@H](O[C@H]2[C@H](O)[C@@H](O[C@H]3OC[C@](C)(O)[C@H](NC)[C@H]3O)[C@H](N)C[C@@H]2N)O1 [Micronomicin sulfate, micronomicin sulfate]
  antibacterial activity: wide antibacterial spectrum against both gram positive and negative bacteria; also recorded: effective bacteriocidal activity against infections by strains resistant to various antibiotics such as kanamycin
